Assays:
Assay type in all cases: in vivo
[1] = test system: foxtail, giant (giant foxtail, Setaria faberi); test: Test C postemergence, visual plant response rating
How it was run: (§1)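 Visual injury on a 0 (no effect) to 100 (complete control) scale versus untreated controls, scored approximately 10 d after treatment under greenhouse conditions. Treatments used surfactant-containing non-phytotoxic solvent formulations, sprayed onto loam–sand soil preemergence or onto one- to two-leaf plants 2–10 cm tall postemergence.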

kochia (Bassia scoparia) [2] = test: Test C postemergence, visual plant response rating
How it was run: as §1

[3] = test system: Italian ryegrass (Lolium mutiflorum); test: Test C postemergence, visual plant response rating
How it was run: as §1

corn (Zea mays) = test: Test C postemergence, visual plant response rating
How it was run: as §1

[4] = test system: blackgrass (Alopecurus myosuroides); test: Test C postemergence, visual plant response rating
How it was run: as §1

[5] = test system: wheat (Triticum aestivum); test: Test C postemergence, visual plant response rating
How it was run: as §1

[6] = test system: galium (catchweed bedstraw, Galium aparine); test: Test C postemergence, visual plant response rating
How it was run: as §1

[7] = test system: ragweed (common ragweed, Ambrosia artemisiifolia); test: Test C postemergence, visual plant response rating
How it was run: as §1

[8] = test system: barnyardgrass (Echinochloa crus-galli); test: Test C postemergence, visual plant response rating
How it was run: as §1

[9] = test system: pigweed (Amaranthus retroflexus); test: Test C postemergence, visual plant response rating
How it was run: as §1

[10] = test system: sedge umbrella (small-flower umbrella sedge, Cyperus difformis); test: Test D flooded paddy test, visual plant response rating; details: 250 g ai/ha, scale 0 to 100 (0 no effect, 100 complete control), 13 to 15 d
How it was run: (§2)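 Visual injury scores, 0 (no effect) to 100 (complete control), were assigned after 13 to 15 d in the greenhouse by comparison with controls. Test compounds had been added to paddy water covering soil by 3 cm at the 2-leaf stage.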

[11] = test system: duck salad (Heteranthera limosa); test: as above; details: 250 g ai/ha, scale 0 to 100 (0 no effect, 100 complete control), 13 to 15 d
How it was run: as §2

rice (Oryza sativa) = test: as above; details: 250 g ai/ha, scale 0 to 100 (0 no effect, 100 complete control), 13 to 15 d
How it was run: as §2

[12] = test system: barnyardgrass (Echinochloa crus-galli); test: as above; details: 250 g ai/ha, scale 0 to 100 (0 no effect, 100 complete control), 13 to 15 d
How it was run: as §2

[13] = test system: foxtail, giant (giant foxtail, Setaria faberi); test: Test C preemergence, visual plant response rating; details: Test C, 0 is no effect, 100 is complete control
How it was run: as §1

kochia (Bassia scoparia) [14] = test: Test C preemergence, visual plant response rating; details: Test C, 0 is no effect, 100 is complete control
How it was run: as §1

[15] = test system: Italian ryegrass (Lolium mutiflorum); test: Test C preemergence, visual plant response rating; details: Test C, 0 is no effect, 100 is complete control
How it was run: as §1

[16] = test system: ragweed (common ragweed, Ambrosia artemisiifolia); test: Test C preemergence, visual plant response rating; details: Test C, 0 is no effect, 100 is complete control
How it was run: as §1

[17] = test system: barnyardgrass (Echinochloa crus-galli); test: Test C preemergence, visual plant response rating; details: Test C, 0 is no effect, 100 is complete control
How it was run: as §1

[18] = test system: pigweed (Amaranthus retroflexus); test: Test C preemergence, visual plant response rating; details: Test C, 0 is no effect, 100 is complete control
How it was run: as §1

[19] = Test C, postemergence, 125 g ai/ha

CON=C(c1cc(F)cc(F)c1F)c1c(O)c(C)nn(C)c1=O [Compound 226]
Foxtail, Giant plant response rating (0 to 100 scale) ([1]; Postemergence, 31 g ai/ha): 30 | Foxtail, Giant plant response rating (0 to 100 scale) [1, 19]: 40 | Kochia plant response rating (0 to 100 scale) (kochia (Bassia scoparia) [2]; Postemergence, 31 g ai/ha): 20 | Kochia plant response rating (0 to 100 scale) (kochia (Bassia scoparia) [2]; [19]): 60 | Ryegrass, Italian plant response rating (0 to 100 scale) ([3]; Postemergence, 31 g ai/ha): 20 | Ryegrass, Italian plant response rating (0 to 100 scale) [3, 19]: 50 | Corn plant response rating (0 to 100 scale) (corn (Zea mays); Postemergence, 31 g ai/ha): 0 | Corn plant response rating (0 to 100 scale) (corn (Zea mays); [19]): 0 | Blackgrass plant response rating (0 to 100 scale) ([4]; Postemergence, 31 g ai/ha): 0 | Blackgrass plant response rating (0 to 100 scale) [4, 19]: 0 | Wheat plant response rating (0 to 100 scale) ([5]; Postemergence, 31 g ai/ha): 0 | Wheat plant response rating (0 to 100 scale) [5, 19]: 0 | Galium plant response rating (0 to 100 scale) ([6]; Postemergence, 31 g ai/ha): 50 | Galium plant response rating (0 to 100 scale) [6, 19]: 90 | Ragweed plant response rating (0 to 100 scale) ([7]; Postemergence, 31 g ai/ha): 30 | Ragweed plant response rating (0 to 100 scale) [7, 19]: 70 | Barnyardgrass plant response rating (0 to 100 scale) ([8]; Postemergence, 31 g ai/ha): 10 | Barnyardgrass plant response rating (0 to 100 scale) [8, 19]: 20 | Pigweed plant response rating (0 to 100 scale) ([9]; Postemergence, 31 g ai/ha): 30 | Pigweed plant response rating (0 to 100 scale) [9, 19]: 50 | Plant response rating, Sedge, Umbrella (Flood) [10]: 0 | Plant response rating, Ducksalad (Flood) [11]: 0 | Plant response rating, Rice (Flood) (rice (Oryza sativa)): 0 | Plant response rating, Barnyardgrass (Flood) [12]: 0 | Foxtail, Giant plant response rating (0 to 100 scale) ([13]; 31 g ai/ha): 10 | Foxtail, Giant plant response rating (0 to 100 scale) ([13]; 125 g ai/ha): 10 | Kochia plant response rating (0 to 100 scale) (kochia (Bassia scoparia) [14]; 31 g ai/ha): 0 | Kochia plant response rating (0 to 100 scale) (kochia (Bassia scoparia) [14]; 125 g ai/ha): 40 | Ryegrass, Italian plant response rating (0 to 100 scale) ([15]; 31 g ai/ha): 30 | Ryegrass, Italian plant response rating (0 to 100 scale) ([15]; 125 g ai/ha): 70 | Ragweed plant response rating (0 to 100 scale) ([16]; 31 g ai/ha): 30 | Ragweed plant response rating (0 to 100 scale) ([16]; 125 g ai/ha): 70 | Barnyardgrass plant response rating (0 to 100 scale) ([17]; 31 g ai/ha): 0 | Barnyardgrass plant response rating (0 to 100 scale) ([17]; 125 g ai/ha): 0 | Pigweed plant response rating (0 to 100 scale) ([18]; 31 g ai/ha): 30 | Pigweed plant response rating (0 to 100 scale) ([18]; 125 g ai/ha): 70

CON=C(c1cc(F)cc(F)c1F)c1c(O)c(C)nn(C)c1=O [Compound 227]
Foxtail, Giant plant response rating (0 to 100 scale) ([1]; Postemergence, 31 g ai/ha): 0 | Foxtail, Giant plant response rating (0 to 100 scale) [1, 19]: 0 | Kochia plant response rating (0 to 100 scale) (kochia (Bassia scoparia) [2]; Postemergence, 31 g ai/ha): 30 | Kochia plant response rating (0 to 100 scale) (kochia (Bassia scoparia) [2]; [19]): 70 | Ryegrass, Italian plant response rating (0 to 100 scale) ([3]; Postemergence, 31 g ai/ha): 20 | Ryegrass, Italian plant response rating (0 to 100 scale) [3, 19]: 40 | Corn plant response rating (0 to 100 scale) (corn (Zea mays); Postemergence, 31 g ai/ha): 0 | Corn plant response rating (0 to 100 scale) (corn (Zea mays); [19]): 0 | Blackgrass plant response rating (0 to 100 scale) ([4]; Postemergence, 31 g ai/ha): 0 | Blackgrass plant response rating (0 to 100 scale) [4, 19]: 0 | Wheat plant response rating (0 to 100 scale) ([5]; Postemergence, 31 g ai/ha): 0 | Wheat plant response rating (0 to 100 scale) [5, 19]: 0 | Galium plant response rating (0 to 100 scale) ([6]; Postemergence, 31 g ai/ha): 60 | Galium plant response rating (0 to 100 scale) [6, 19]: 80 | Ragweed plant response rating (0 to 100 scale) ([7]; Postemergence, 31 g ai/ha): 20 | Ragweed plant response rating (0 to 100 scale) [7, 19]: 50 | Barnyardgrass plant response rating (0 to 100 scale) ([8]; Postemergence, 31 g ai/ha): 0 | Barnyardgrass plant response rating (0 to 100 scale) [8, 19]: 20 | Pigweed plant response rating (0 to 100 scale) ([9]; Postemergence, 31 g ai/ha): 30 | Pigweed plant response rating (0 to 100 scale) [9, 19]: 50 | Plant response rating, Sedge, Umbrella (Flood) [10]: 0 | Plant response rating, Ducksalad (Flood) [11]: 0 | Plant response rating, Rice (Flood) (rice (Oryza sativa)): 0 | Plant response rating, Barnyardgrass (Flood) [12]: 0 | Foxtail, Giant plant response rating (0 to 100 scale) ([13]; 31 g ai/ha): 0 | Foxtail, Giant plant response rating (0 to 100 scale) ([13]; 125 g ai/ha): 30 | Kochia plant response rating (0 to 100 scale) (kochia (Bassia scoparia) [14]; 31 g ai/ha): 0 | Kochia plant response rating (0 to 100 scale) (kochia (Bassia scoparia) [14]; 125 g ai/ha): 10 | Ryegrass, Italian plant response rating (0 to 100 scale) ([15]; 31 g ai/ha): 30 | Ryegrass, Italian plant response rating (0 to 100 scale) ([15]; 125 g ai/ha): 60 | Ragweed plant response rating (0 to 100 scale) ([16]; 31 g ai/ha): 20 | Ragweed plant response rating (0 to 100 scale) ([16]; 125 g ai/ha): 80 | Barnyardgrass plant response rating (0 to 100 scale) ([17]; 31 g ai/ha): 0 | Barnyardgrass plant response rating (0 to 100 scale) ([17]; 125 g ai/ha): 20 | Pigweed plant response rating (0 to 100 scale) ([18]; 31 g ai/ha): 0 | Pigweed plant response rating (0 to 100 scale) ([18]; 125 g ai/ha): 10

Reference: patent publication US20210045385A1, “PYRIDAZINONE-SUBSTITUTED KETOXIMES AS HERBICIDES” (FMC Corporation, priority 2018, published 2021)
